US8030543B2, “Efficient transformation method for sunflower and oil seeds based on positive selection” (Avesthagen Limited, priority 2006, dated 2011)

Experiments:
[1] = test system: Helianthus annuus CMS234B split embryonic axis (SEA) explants; test: Positive selection and regeneration of sunflower SEA explants transformed with pCAMBIA-XI on media containing Xylose; format: cell-based; details: for No of PCR +ve explants / No. of explants Regenerating into shootlets / No. of explants surviving I selection (15 days) / No. of explants surviving I selection (21 days) / No. of explants surviving II selection (15 days) / PCR +ve Regenerants: 100 explants infected, pCAMBIA-XI
Method: The seeds were sterilized and the split embryonic axis isolated as described earlier. […] Agrobacterium cells from the glycerol stock were grown overnight in Luria-Bertani (LB) medium containing Rifampicin (10 μg/ml), Gentamycin (10 μg/ml) and Kanamycin (50 μg/ml) and grown exponentially for a period of 4-6 hrs to reach O.D600=1.0. The cells were centrifuged at 6000 rpm for 5 min at 4° C. and then washed and resuspended in MS liquid to reach an O.D600 of 1.0. The excised explants were immediately transferred to a vacuum infiltration flask containing 25 ml of the resuspended culture. Vacuum at 200 atm pressure for 15 min was applied and quickly released. The culture was then drained off completely and explants collected on a blotting paper. […] After two days of co-cultivation, the explants were washed thoroughly with Murashige and Skoog (1972) liquid medium containing Cefotaxime 250 mg/l. […] After the selection period the shoots were subcultured onto Elongation medium containing ½ Strength MS medium. […] The explants surviving first selection were transferred for a second selection to the same medium for 21 days. Explants were subsequently transferred to their respective elongation media. Healthy shootlets were transferred to their respective rooting media.

[2] = test system: sunflower CMS234B SEA explants; test: Screening for capability to utilize xylose as carbon source (untransformed SEA explants); format: cell-based, Helianthus annuus; details: MS medium with 0.5 mg/l BAP, 3% Xylose as carbon source
Method: In order to determine if sunflower is capable of using xylose as the carbon source, explants were cultured on regeneration media containing sucrose and xylose respectively.

Question: For `O=C[C@H](O)[C@@H](O)[C@H](O)CO` [Xylose, D-Xylose], which “No of PCR +ve explants” value ([1]; Xylose Conc. 15 (mg/l)) is on record?
Answer: Its value is 28.

Question: What about the “No. of explants Regenerating into shootlets” value ([1]; Xylose Conc. 15 (mg/l)) of the same compound?
Answer: Its value is 20.

Question: And the “No. of explants surviving I selection (15 days)” value ([1]; Xylose Conc. 15 (mg/l))?
Answer: The value was 80.

Question: What about the “No. of explants surviving I selection (21 days)” value ([1]; Xylose Conc. 15 (mg/l)) of the same compound?
Answer: The value was 70.

Question: And the “No. of explants surviving II selection (15 days)” value ([1]; Xylose Conc. 15 (mg/l))?
Answer: Its value is 60.

Question: And the “PCR +ve Regenerants” value ([1]; Xylose Conc. 15 (mg/l))?
Answer: The value was 10.

Question: And the “No of PCR +ve explants” value ([1]; Xylose Conc. 20 (mg/l))?
Answer: The value was 30.

Question: What about the “No. of explants Regenerating into shootlets” value ([1]; Xylose Conc. 20 (mg/l)) of the same compound?
Answer: Its value is 12.

Question: And the “No. of explants surviving I selection (15 days)” value ([1]; Xylose Conc. 20 (mg/l))?
Answer: Its value is 72.

Question: And the “No. of explants surviving I selection (21 days)” value ([1]; Xylose Conc. 20 (mg/l))?
Answer: Its value is 65.

Question: And the “No. of explants surviving II selection (15 days)” value ([1]; Xylose Conc. 20 (mg/l))?
Answer: Its value is 57.

Question: And the “PCR +ve Regenerants” value ([1]; Xylose Conc. 20 (mg/l))?
Answer: Its value is 7.

Question: What about the “No of PCR +ve explants” value ([1]; Xylose Conc. 25 (mg/l)) of the same compound?
Answer: The value was 28.

Question: And the “No. of explants Regenerating into shootlets” value ([1]; Xylose Conc. 25 (mg/l))?
Answer: The value was 7.

Question: What about the “No. of explants surviving I selection (15 days)” value ([1]; Xylose Conc. 25 (mg/l)) of the same compound?
Answer: Its value is 65.

Question: And the “No. of explants surviving I selection (21 days)” value ([1]; Xylose Conc. 25 (mg/l))?
Answer: Its value is 55.

Question: What about the “No. of explants surviving II selection (15 days)” value ([1]; Xylose Conc. 25 (mg/l)) of the same compound?
Answer: The value was 40.

Question: And the “PCR +ve Regenerants” value ([1]; Xylose Conc. 25 (mg/l))?
Answer: Its value is 6.

Question: What about the “No of PCR +ve explants” value ([1]; Xylose Conc. 30 (mg/l)) of the same compound?
Answer: The value was 18.

Question: And the “No. of explants Regenerating into shootlets” value ([1]; Xylose Conc. 30 (mg/l))?
Answer: The value was 5.

Question: And the “No. of explants surviving I selection (15 days)” value ([1]; Xylose Conc. 30 (mg/l))?
Answer: Its value is 50.

Question: What about the “No. of explants surviving I selection (21 days)” value ([1]; Xylose Conc. 30 (mg/l)) of the same compound?
Answer: The value was 38.

Question: What about the “No. of explants surviving II selection (15 days)” value ([1]; Xylose Conc. 30 (mg/l)) of the same compound?
Answer: Its value is 20.

Question: And the “PCR +ve Regenerants” value ([1]; Xylose Conc. 30 (mg/l))?
Answer: Its value is 5.

Question: What about the “green tissue of plantlets” value ([1]; plantlets grown on D-Xylose medium, compared to plantlets grown on Hygromycin) of the same compound?
Answer: Its value is 90%.

Question: What about the “healthy shoots per explants” value ([1]; positive selection on Xylose) of the same compound?
Answer: Its value is 2-3.

Question: And the “time within which explants brown and die” value [2]?
Answer: The value was 2-3 weeks.
